Where no end group is shown, it is not given here.
Tests used:
Type in all cases: cell-based
[1] = test system: NGF-differentiated PC12 cells; experiment: Serum-induced neurite retraction; conditions: 15 min after serum (10% HS and 5% FCS); NGF 50 ng/ml 16 hours
Method: FIG. 6A represents histograms quantifying the effects of GFP-TRIPα or GFP on serum induced neurite retraction in NGF-differentiated PC12 cells. The X-axis represents the time after serum addition in minutes and the Y-axis represents the percentage of transfected cells with neurites.
Cells were transfected with GFP-TRIPα (white bars) or GFP (black bars) and differentiated with NGF (50 ng/ml). Serum was added and neurite retraction was followed for 15 minutes. The number of transfected cells with neurites was counted from at least 200 cells in 3 independent experiments.
(§1) Since Trio is an activator of RhoA and is expressed in PC12 cells (Estrach et al., 2002), it was analysed whether TRIPα could interfere with serum-induced neurite retraction in NGF-differentiated PC12 cells. […] After NGF treatment, cells were subjected to serum addition (DMEM medium supplemented with 10% HS and 5% fetal calf serum (FCS)) from 0 to 15 min (FIG. 6A). Cells were then fixed and permeabilised (Estrach et al., 2002) and observed as described in FIG. 5. Cells with neurites are defined as cells with neurites of at least twice the length of the cell body.

[2] = test system: ectopically expressed TrioGEFD2 in PC12 cells; experiment: NGF-induced neurite outgrowth in PC12 cells expressing TrioGEFD2; conditions: PC12 co-transfected with TrioGEFD2, NGF 50 ng/ml 16 hours
Method: FIG. 5C represents the inhibition by TRIPα of the TrioGEFD2 effect in neuronal morphology. Immunofluorescence images of PC12 cells co-transfected with HA-TrioGEFD2 and either GFP-TRIPα (panels d, e, f) or GFP alone panels a, b, c) are shown. After 48 hours of expression, cells were treated for 16 hours with NGF (nerve growth factor) (50 ng/ml) and fixed. Expression of GFP and GFP-TRIPα was directly visualised (a, d) whereas overexpressed TrioGEFD2 was detected using the 12CA5 anti-HA antibody followed by AMCA-conjugated anti-mouse IgG (b, e). Filamentous actin was stained with Rhodamine-conjugated Phalloidin (c, f). Scale bar: 20 μm.
(§2) Cells were transfected with HA-tagged TrioGEFD2 (left side of the figure), myc-tagged KalGEFD2 (middle of the figure) or RhoAV14 (a constitutively active mutant of RhoA) (right side of the figure), and with either GFP-TRIPα (white bars), GFP-TRIPβ (hatched bars) or GFP alone (black bars). Cells were processed as described in FIG. 5C and the number of co-transfected cells with neurites was counted.
(§3) Numerous reports have established Rho-GTPases as key regulators of neuronal morphology (Luo, 2000). In neuronal cell lines, activation of RhoG, Rac and Cdc42 induces neurite outgrowth, while RhoA stimulation antagonises this effect by promoting neurite retraction (Katoh et al., 2000; Kozma et al., 1997; Yamaguchi et al., 2001). The PC12 cell line is a useful cellular model for studying Nerve Growth Factor (NGF)-induced neuronal differentiation. PC12-E2 cells were plated on collagen-coated 12 mm coverslips as described previously (Estrach et al., 2002) and transfected with the Lipofectamine Plus reagent (Life Technologies) according to the manufacturer's instructions. After transfection and differentiation with NGF (Promega, 50 ng/ml in DMEM medium supplemented with 0.5% horse serum (HS)) for 16 hours, PC12 cells were fixed and permeabilised as described (Estrach et al., 2002). […] Images were recorded using a Hamamatsu CCD camera. All transfections were repeated at least three times, and an average of 200 cells was counted each time. […]

KalGEFD2 in PC12 cells = experiment: NGF-induced neurite outgrowth in PC12 cells expressing KalGEFD2; conditions: PC12 co-transfected with KalGEFD2, NGF 50 ng/ml
From the text: as §2
as §3, with “instructions.” for “instructions. After transfection and differentiation with NGF (Promega, 50 ng/ml in DMEM medium supplemented with 0.5% horse serum (HS)) for 16 hours, PC12 cells were fixed and permeabilised as described (Estrach et al., 2002).”

PC12 cells = experiment: NGF-induced neurite outgrowth; conditions: NGF 50 ng/ml, 1 to 24 hours
Method: PC12 were transfected with GFP-TRIPα (lack squares) or GFP (white diamonds) and subjected to a time-course exposure to NGF (50 ng/ml). At each time-point cells were fixed and the number of transfected cells with neurites was counted from at least 200 cells.
as §1
However, since the NGF treatment was performed for 16 hours, it was still possible that the effect of TRIPα on the NGF-differentiation signal was masked by the long NGF exposure. To test this hypothesis, PC12 cells expressing GFP-TRIPα or […] were subjected to a time-course exposure to NGF (50 ng/ml) for 1 to 24 hours.

[3] = test system: TrioGEFD2-mediated RhoA activation; experiment: RhoA activity assay (Rhotekin RBD pull-down) in COS cells; conditions: COS cells co-transfected, 48 hours
From the text: FIG. 5B represents the inhibitory effect of TRIPα on TrioGEFD2-mediated RhoA activation in intact cells using the RhoA activity assay, COS cells were transfected with GFP-TRIPα (left line), TrioGEFD2 (middle line) or both (right line). Cell lysates were subjected to GST-pulldown using the recombinant RBD (RhoA binding domain) fragment of the RhoA-specific effector Rhotekin. The presence of the GTP-bound form of RhoA and of the total RhoA protein was detected using a monoclonal anti-RhoA antibody and is represented in the upper two panels. GFP-TRIPα and TrioGEFD2 expression in the cell lysates is shown in the lower two panels.
Quantification of the RhoA activity assay is shown in the right part of the figure. The y-axis represents the ratio between active RhoA and total RhoA, in arbitrary units.
The Inventors then wanted to assess the inhibition by TRIPα of TrioGEFD2-mediated activation of endogenous RhoA in intact cells. To do so, the RhoA activity assay was used to detect the active GTP-bound form of RhoA (Ren et al., 1999). Briefly, COS cells were transfected as described in FIG. 5A with TrioGEFD2 in absence or in the presence of GFP-TRIAPα. 48 hours after transfection, cell lysates were subjected to GST-pull down using 20 μg of the recombinant RBD (RhoA binding domain) fragment of the RhoA-specific effector Rhotekin, that binds only to the activated GTP-bound form of RhoA.

GFP-TRIPα: variable region of TRIAPα (TRIPα) fused to GFP, expressed from pEGFP-C3 plasmid (AREGADGAICGYNLATLVMLGPSERVFCPLCEPCSSDIYELM; cysteine pairing not given here; also: fused to GFP (carrier not in chain))
percentage of transfected cells with neurites after serum addition [1]: 32%
Reversion of TrioGEFD2 inhibition of NGF-induced neurite outgrowth [2]: reverted the Trio-dependent inhibition
percentage of co-transfected cells with neurites [2]: 45%
Effect on KalGEFD2 inhibition of NGF-induced neurite extension (KalGEFD2 in PC12 cells): similarly inhibited by KalGEFD2 either with or without
Effect on NGF-induced neurite outgrowth, time course (PC12 cells): responded to NGF treatment more quickly than the control cells
Inhibition of TrioGEFD2-mediated RhoA activation in intact cells [3]: significantly inhibited
